“And” between values parts separate entries of the source, which are not always exact repeats. Equal entries are not always repeated.
Experiments:
DU145 cells = assay: MTT proliferation assay, DU145; type: cell-based, human; parameters: Mean Abs: unit of the concentration uncertain
MDA-MB-468 cells = assay: MTT proliferation assay, MDA-MB-468; type: cell-based, human; conditions: MDA-MB-468, 72 hours
MCF-7 cells = assay: MTT proliferation assay, MCF-7; type: cell-based, human; conditions: MCF-7, 72 hours
[1] = system: BT474 human breast tumor xenograft; assay: BT474 human breast tumor xenograft in CB.17 SCID mice, Example 13; type: in vivo
SJSA cells = assay: Anti-proliferative effect, SJSA cells; type: cell-based; conditions: for Absorbance ± S.E.: 72 hr
MDA-MB 231 cells = assay: Internalization of sdAb, anti-His tag staining, MDA-MB 231; type: cell-based; conditions: 18 hours
Procedure: (§1) An anti-HIV-1 Reverse Transcriptase (RT) sdAb was used as a negative control.
(§2) The slides were incubated for 18 hours after sdAb addition. The chambers were briefly rinsed with media and fixed in ice-cold methanol for 5-10 min. The chambers were then dried and stained with a fluorescent anti-His tag antibody (1:200)(Novus Biologicals, Littleton, Colo.) for 45 min at room temperature. The slides were rinsed in PBS for 5 minutes and mounted.

PANC-1 cells [2] = assay: Internalization of sdAb, anti-His tag staining, PANC-1; type: cell-based; conditions: 18 hours
Procedure: as §1, §2

human KRAS = assay: Biacore 3000 protein binding, KRAS ligand immobilized (Example 22); conditions: sdAb as analyte
[3] = system: translocation of Stat3 to the nucleus; assay: Stat3 immunofluorescence after IL-6 treatment (HEp-2, MDA-MB-231, PANC-1); type: cell-based; conditions: sdAb 1:10 in media overnight, 100 ng/ml IL-6 15 min
Procedure: The cells were grown to confluence on chamber slides. […] As a negative control, no antibody was added to duplicate chambers. The slides were washed, and either serum-free media alone or 100 ng/ml recombinant human IL-6 (Peprotech, Rocky Hill, N.J.) in serum free media was added to the slides for 15 min at 37° C. The media was then removed and the chamber slides were fixed in ice cold 100% methanol for 10 min at −20° C.
Immunofluorescence assays were performed on the fixed slides. First, the slides were blocked with 3% BSA in PBS was done for one hour at room temperature. The primary antibody, Stat3(124H6) mouse monoclonal antibody (Cell Signaling Technology, Danvers, Mass.) was added to the slides at a 1:1000 dilution overnight in dark box at 4° C. The following day, the slides were washed and the secondary Alexa Fluor 488 anti-mouse IgG antibody (Cell Signaling Technology) was added at a 1:500 dilution and incubated for 1 hour at room temperature. The slides were then washed, mounted with mounting media and viewed with a fluorescence microscope.

PANC-1 cells [4] = assay: PANC-1 growth inhibition with or without Gemcitabine; conditions: SBT-100 100 μg/ml alone, 72 hours (Table 44)
PANC-1 xenograft = assay: PANC-1 xenograft, sdAb alone, Gemcitabine alone or combination, Example 19; conditions: SBT-100 5 mg/kg BID, Gemcitabine 20 mg/kg, or both

Substance: Anti-STAT3 VHH13: anti-STAT3 single domain antibody, SEQ ID NO:3; bacterially produced form referred to as SBT-100
- Average Absorbance (DU145 cells; DU145, 50 μg): 0.98
- Average % Inhibition (DU145 cells; DU145, 50 μg (50.0 μg/ml), listed as anti-STAT3 bacterial VHH13): 31.2%
- Absorbance (DU145 cells; DU145, 50 μg, Experiments 1-3, listed as Anti-STAT3 Bacterial VHH13): 0.68 and 1.2 and 1.03
- Average Absorbance (DU145 cells; DU145, 100 μg): 0.10
- Mean Abs (DU145 cells; Table 18, DU145, 0.39 (unit uncertain)): 0.906
- Mean Abs (DU145 cells; Table 18, DU145, 3.13 (unit uncertain)): 0.783
- Mean Abs (DU145 cells; Table 18, DU145, 6.25 (unit uncertain)): 0.770
- Mean Abs (DU145 cells; Table 18, DU145, 25 (unit uncertain)): 0.359
- Mean Abs (DU145 cells; Table 18, DU145, 50 (unit uncertain)): 0.161
- Mean Abs (DU145 cells; Table 18, DU145, 100 (unit uncertain)): 0.039
- Mean Abs (DU145 cells; Table 18, DU145, 200 (unit uncertain)): 0.039
- Mean Abs (MDA-MB-468 cells; 0.39 μg/ml): 0.311
- % Inhibition (MDA-MB-468 cells; 3.13 μg/ml): 11.9%
- Mean Abs (MDA-MB-468 cells; 3.13 μg/ml): 0.223
- % Inhibition (MDA-MB-468 cells; 6.25 μg/ml): 9.1%
- Mean Abs (MDA-MB-468 cells; 6.25 μg/ml): 0.230
- % Inhibition (MDA-MB-468 cells; 25 μg/ml): 73.5%
- Mean Abs (MDA-MB-468 cells; 25 μg/ml): 0.067
- % Inhibition (MDA-MB-468 cells; 50 μg/ml): 83.4%
- Mean Abs (MDA-MB-468 cells; 50 μg/ml): 0.042
- % Inhibition (MDA-MB-468 cells; 100 μg/ml): 85.0%
- Mean Abs (MDA-MB-468 cells; 100 μg/ml): 0.038
- % Inhibition (MDA-MB-468 cells; 200 μg/ml): 84.4%
- Mean Abs (MDA-MB-468 cells; 200 μg/ml): 0.040
- Mean Abs (MCF-7 cells; 0.39 μg/ml): 0.818
- Mean Abs (MCF-7 cells; 3.13 μg/ml): 0.689
- Mean Abs (MCF-7 cells; 6.25 μg/ml): 0.435
- % Inhibition (MCF-7 cells; 25 μg/ml): 62.1%
- Mean Abs (MCF-7 cells; 25 μg/ml): 0.212
- % Inhibition (MCF-7 cells; 50 μg/ml): 89.9%
- Mean Abs (MCF-7 cells; 50 μg/ml): 0.057
- % Inhibition (MCF-7 cells; 100 μg/ml): 93.2%
- Mean Abs (MCF-7 cells; 100 μg/ml): 0.038
- % Inhibition (MCF-7 cells; 200 μg/ml): 92.9%
- Mean Abs (MCF-7 cells; 200 μg/ml): 0.040
- T-C ([1]; 1 mg/kg ip tid × 14 first day 2 doses): 10.8
- effect on growth of BT474 tumors in vivo ([1]; 1 mg/kg ip tid×14, compared to the control group): did not reduce the growth
- MTV (n) Day 60 ([1]; Day 60, 1 mg/kg ip tid × 14, n in parentheses): 550 (3)
- tumor volume ([1]; day 59 of the study, both groups): 700 cubic mm^3
- Absorbance ± S.E. (SJSA cells; 25 μg/ml): 1.36 ± 0.09
- Absorbance ± S.E. (SJSA cells; 50 μg/ml): 0.90 ± 0.04
- Absorbance ± S.E. (SJSA cells; 100 μg/ml): 0.27 ± 0.01
- Absorbance ± S.E. (SJSA cells; 200 μg/ml): 0.26 ± 0.01
- IC50 (SJSA cells; SJSA cells): 51 µg/mL
- internalization, anti-His tag staining (MDA-MB 231 cells): positive cytoplasmic staining
- internalization, anti-His tag staining (PANC-1 cells [2]): positive cytoplasmic staining
- binding to KRAS ligand (human KRAS): bound
- translocation of Stat3 to the nucleus following IL-6 treatment [3]: blocks the translocation of Stat3 to the nucleus
- Absorbance (PANC-1 cells [4]): 0.333
- TUMOR VOLUMES (mm^3) Mean (PANC-1 xenograft; Day 1): 107.34 mm^3
- TUMOR VOLUMES (mm^3) Mean (PANC-1 xenograft; Day 5): 145.86 mm^3
- TUMOR VOLUMES (mm^3) Mean (PANC-1 xenograft; Day 8): 149.12 mm^3
- % INHIBITION OF CONTROL (tumor growth) (PANC-1 xenograft; Day 12): 20.70%
- TUMOR VOLUMES (mm^3) Mean (PANC-1 xenograft; Day 12): 188.78 mm^3
- TUMOR VOLUMES (mm^3) Mean (PANC-1 xenograft; Day 15): 233.25 mm^3
- % INHIBITION OF CONTROL (tumor growth) (PANC-1 xenograft; Day 19): 18.37%
- TUMOR VOLUMES (mm^3) Mean (PANC-1 xenograft; Day 19): 332.68 mm^3
- % INHIBITION OF CONTROL (tumor growth) (PANC-1 xenograft; Day 22): 19.17%
- TUMOR VOLUMES (mm^3) Mean (PANC-1 xenograft; Day 22): 390.59 mm^3
